Reference: patent publication EP0003008A1 (priority 1977, dated 1979)
“And” between values parts separate entries of the source, which are not always exact repeats. Equal values may be shown once. Read-outs that look alike come from different tables or passages of the source.

Assays:
[1] = tested on: influenza (WSN Wilson Smith Neurotropic type A); assay: Plaque assay of influenza (WSN) on cell monolayers; format: cell-based, influenza virus (WSN); conditions: conc. of test compound 500 μM, 34°C for 4 days, two values given
[2] = Acid stability test in 0.1 N HCl, thin layer chromatography estimate of decomposition products; format: physicochemical; conditions: 100 µg compound applied
Protocol: The acid stability was investigated by dissolving 5 mg of each compound in 1 ml of 0.1 N HC1 in a test tube. For use as references 0.2 ml of each solution was withdrawn, immediately treated with 0.2 ml of a 10 % aqueous solution of NaHCO3 and frozen. The remaining 0.8 ml of each solution was incubated at 37°C for 2 hours. After incubation, 0.8 ml of a 10 % aqueous solution of NaHCO3 was added to each solution and the solutions were frozen. The incubated compounds and the reference compounds were ly ophilized to dryness and redissolved in distilled H20, 0.2 ml and 1.0 ml respectively, for each reference solution and incubated solution. The solutions were applied to silica gel (Merck PF254, 20x20 cm) and polyethylene imine (Macherey-Nagel PEI, 20x20 cm) thin layer plates. A total of 20 µl of the reference solutions (100 µg compound) and 25 µl of the incubated solutions (100 µg compound) were applied. To each plate was also added, as references, solutions of phosphorous acid (H2HPO3) (5 and 20 µg) and of trisodiumphosphonoformate (5 and 20 µg). (Decomposition of phosphonoformic acid at low pH produces phosphorous acid).
The silica gel plates were prepared in duplicate and eluted with a solution composed of methanol - 10% aq ammonia - trichloroacetic acid - water (50-15-5-3, v/v) and the polyethylene imine plates were eluted with a 1M aq lithium chloride solution. After elution the plates were dried. One of the duplicated silica gel plates was sprayed with 4 % aq . (NH4)2MoO4 and the polyethylene imine plates were sprayed with a solution composed of 60 % HClO4 - 0.1N aq Hcl - 4% aq (NH4)2MoO4 - H2O (5-10-25-60, v/v). The silica gel plates were hriefly dried at 80-90°C and sprayed with 1% SnCl2 in 10% aq RCl. phosphorous acid and phosphonic acid groups appeared as blue apots on the siliea gel plates (System 1) and as white spots on the polyethylene imine plates (System II). The remaining duplicate silica gel plates were exposed to iodine vapor for detection of di- and triesters of phosphonoformic acid. […]

[3] = 10 µmol intraperitoneally, urine from two male mice
[4] = target: cell-free influenza polymerase (Influenza A virus, UniProt P03431); assay: Cell-free influenza polymerase assay; format: biochemical; conditions: in diluted urine; assay mixture includes Mn2+; used as standard; read-out: 50% inhibition
[5] = incubated in 0.1 N HCl at 37°C for 2 hours

cell-free influenza polymerase, sequence (P03431 whole entry, looked up): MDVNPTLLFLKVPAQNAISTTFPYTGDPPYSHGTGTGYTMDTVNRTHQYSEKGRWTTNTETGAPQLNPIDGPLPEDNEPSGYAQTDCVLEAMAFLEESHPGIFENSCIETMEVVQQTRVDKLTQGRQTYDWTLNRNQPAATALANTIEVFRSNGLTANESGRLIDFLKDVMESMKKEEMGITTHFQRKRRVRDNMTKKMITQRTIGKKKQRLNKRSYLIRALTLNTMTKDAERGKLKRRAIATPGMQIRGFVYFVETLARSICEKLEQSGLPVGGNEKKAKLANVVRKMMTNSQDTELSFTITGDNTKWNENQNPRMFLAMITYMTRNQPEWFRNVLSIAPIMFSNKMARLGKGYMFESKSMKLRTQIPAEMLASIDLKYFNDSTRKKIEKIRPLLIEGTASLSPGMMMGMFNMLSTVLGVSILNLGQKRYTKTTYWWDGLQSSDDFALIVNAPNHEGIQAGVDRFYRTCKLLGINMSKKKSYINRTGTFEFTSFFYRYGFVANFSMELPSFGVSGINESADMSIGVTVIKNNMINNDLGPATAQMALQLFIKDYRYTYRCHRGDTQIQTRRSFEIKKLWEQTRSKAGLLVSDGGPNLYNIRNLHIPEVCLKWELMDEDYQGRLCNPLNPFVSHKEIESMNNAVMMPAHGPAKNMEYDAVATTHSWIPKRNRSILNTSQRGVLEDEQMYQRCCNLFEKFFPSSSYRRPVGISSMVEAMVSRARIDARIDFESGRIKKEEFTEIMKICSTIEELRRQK

SMILES	Estimated formation of phosphorous acid [2, 5] [µg]	Recovered phosphonoformic acid activity in urine ([3]; Day 1) [µmol phosphonoformic acid]	Recovered phosphonoformic acid activity in urine ([3]; Day 2) [µmol phosphonoformic acid]	Recovered phosphonoformic acid activity in urine ([3]; Day 3) [µmol phosphonoformic acid]	other results
CCOP(=O)(OCC)C(=O)N(CC)CC [VIS 228, diethyl diethylcarbamoylphosphonate]	–	–	–	–	Inhibition (%) [1]: 25% and 37%
O=C(O)P(=O)(O)O [Trisodiumphosphonoformate, reference compound]	> 20	1.25	0.13	<0.01	–
NC(=O)P(=O)(O)O [R1=Na R2=Na R4=H R5=H]	15	–	–	–	Estimated formation of phosphorous acid ([2]; non-incubated reference solution (figure in parenthesis)): 5 µg
O=C(O)P(=O)(O)O [Phosfonoformic acid, phosphonoformic acid]	–	–	–	–	IC50 [4]: 500 nM
CCN(CC)C(=O)P(=O)([O-])[O-].[Na+].[Na+] [VIS 232, disodium diethylcarbamoylphosphonate]	–	0.63	0.36	<0.01	–
